Results reported in patent publication US20030211458A1, “Measurements of enzymatic activity in a single, individual cell in population” (priority 2000, published 2003).

Tests used:
[1] = test system: intracellular nonspecific esterase; assay: Individual-cell sequential FDA hydrolysis (KMAPP, VMAX) on CS-S cytometer; assay type: cell-based, human; settings: different cell carriers
[2] = test system: intracellular nonspecific esterase; assay: Flow cytometer (FACSCalibur) population average KMAPP and VMAX of FDA hydrolysis; assay type: cell-based, human
Experimental: Methods Cell Biol (1994) 41: 469-508. Four means of intracellular fluorescence intensities (IFI) were calculated from data accumulated along four time gates of 25 second each and 30 seconds apart, from which V0 was extracted. This process was sequentially performed on five different aliquots of cells (50 μl, at a concentration of 6×10^6 cells/ml) each exposed to different FDA concentrations (0.3, 0.6, 1.2, 1.8 and 2.4 μM. Introducing these average V0 in values Eq. 8 yielded population average KMAPP and VMAX of 2.16 μM and 4.32 μM and 6.6 and 5.83 in cells incubated with and without PHA. It should be noted that while KMAPP is an intrinsic value, VMAX depends on the optoelelctronic arrangement under use. Thus, obviously, at the population level, measurements carried out both on FC and average calculated from individual cell KMAPP measurement data yield similar KMAPP values, indicating the validity of the invented methodology.

[3] = test system: intracellular nonspecific esterase; assay: Individual-cell sequential FDA hydrolysis (KMAPP, VMAX) on CS-S cytometer; assay type: cell-based, human; settings: for FI rate ratios of the same trapped cells sequentially exposed to different FDA concentrations: same cell carrier; for average KMAPP / average VMAX: average of individual cells
Experimental: Measuring Intracellular Nonspecific Esterase Activity in a Single Lymphocyte Using Fluorescein-Diacetate (FDA) as the Substrate.
Phytohemagglutinin PHA (HA15, Murex Biotech) was reconstituted in 5 ml of double-distilled water and further diluted ten times. For stimulation, 10 μl of this solution was added to a 90 μl cell suspension (7×10^6 cells/ml).
A staining solution of 3.6 μM FDA (Riedel-de Haen Ag. Seelze-Hanover) in Dulbecco Phosphate Buffered Saline (PBS, Biological Industries) was prepared as follows: 50 mg of FDA was dissolved in 5 ml of DMSO (Sigma). 7.5 μl of this solution was added to 50 ml PBS. For 0.6, 1.2 and 2.4 μM the solution was further diluted in PBS.
30 Heparinized blood (30 ml), was taken from healthy, normal volunteers. The procedure for separating the PBMC has been described in detail, elsewhere [Sunray M, Deutsch M, Kaufman M, Tirosh R, Weinreb A, and Rachmani H. Cell Activation influences cell staining linetics, Spectrochimica Acta A (1997) 53:1645-1653]. Shortly after removing the iron absorbing cells, the remaining cells are layered on a two-layer (100% and 80%) cell density gradient (Ficoll Paque, Pharmacia 1.077 g/ml) and centrifuged. The cells accumulated at the interface between the two Ficoll layers, were collected and kept at 37° C. in 5 ml of enriched culture medium overnight. The next day the PBMC were washed and resuspended in PBS at a final concentration of 7·10^6 cells/ml. More than 70% of the cells were defined as T lymphocytes and viability, which was determined using eosin, was always higher than 90%.
Freshly prepared PBMC (7·10^6 cells/ml) were incubated at 37° C., 5% CO2 with 5 μgr/ml PHA for 30 minutes. PBMC controls were incubated without PHA under identical conditions.
The multiparametric, computerized, discrete cytometer CS-S used in performing this example was described in detail in the above specified US Patents. Its central feature is a cell carrier (CC) incorporating a 100×100 dimensional array having a conical cross-section with an upper opening of ˜7 μm and lower opening of ·4 μm, each approximately 20 μm apart, in which individual cells are trapped. The cell carrier is mounted on a computer-controlled stage that enables repeated multi-scanning of the same cells.
Loading the cells in wells traps on the Cell Carrier (CC) was carried out, as described in Deutsch M, and Weinreb A., Apparatus for High Precision Repetitive Sequential Optical Measurement of Living Cells, Cytometry (1994) 16: 214-226. An aliquot of 80 μl of unstained cell suspension (7×10^6 cells/ml) was loaded on the CC. Initial scanning was then performed in order to detect individual cell background scattering and auto-fluorescence. This undesired signal is recorded per measurement location and subtracted from the total emission signal (after exposure) in order to obtain the correct fluorescence signal.
For fluorescence intensity FI(t) measurements, trapped cells on the CC were sequentially exposed to increasing concentrations of FDA in PBS staining solutions.
Following background measurement, the volume of PBS, which covers the cells, was pumped out and the following procedure was carried out:
At time point zero, 40 μl of the lowest substrate concentration solution was applied on top of the trapped cells and a pre-chosen cell field was sequentially scanned 6 times. This yielded 6 accurately timed FI data points per each individual cell at a given dye concentration. FI is usually measured utilizing epi-fluoescence optical arrangement which permits the differentiation between the excitation energy and the emitted fluorescence energy to be detected by photomultipliers, CCD detectors etc.
The above procedure is repeated for each different substrate solution used in the experiment.
This yielded six FI data points for each individual cell, per substrate concentration, from which V was extracted and the individual cell KMAPP and VMAX values were calculated. […]

[4] = test system: Peripheral blood lymphocytes; settings: individual cell, FDA staining before and after incubation at 37° C., FIG. 7
Experimental: Peripheral blood lymphocytes were loaded on a CC, and exposed to FDA, after which individual FI(t) was measured. […] At the end of incubation, the same cells were again exposed to the same FDA concentration and FI(t) measurements were again performed.
Since cells are in general heterogeneous, one would expect a distribution of FI(t) rates (slopes) in the same experiment. […] Thus, in such an experimental procedure, the determining parameter is the ratio between the initial and the final slopes, namely, the ratios between FI(t) slopes prior to and after incubation (with and without drugs), as well as ratios of individual KMAPP and VMAX prior to and after incubation.

[5] = 1.2/0.6 μM FDA (concentration ratio 2.0)
[6] = 2.4/0.6 μM FDA (concentration ratio 4.0)
[7] = 3.6/0.6 μM FDA (concentration ratio 6.0)
[8] = FDA substrate, cells incubated without PHA
[9] = FDA substrate, cells incubated without PHA, CS-S
[10] = PHA-incubated vs control cells, CS-S

CC(=O)Oc1ccc2c(c1)Oc1cc(OC(C)=O)ccc1C21OC(=O)c2ccccc21 [FDA, Fluorescein-Diacetate]
FI rate ratios of cells parallely exposed to different FDA concentrations [1, 5]: 1.9 | FI rate ratios of cells parallely exposed to different FDA concentrations [1, 6]: 4.4 | FI rate ratios of cells parallely exposed to different FDA concentrations [1, 7]: 6.2 | population average KMAPP [2, 8]: 4.32 µM | population average VMAX [2, 8]: 5.83 | FI rate ratios of the same trapped cells sequentially exposed to different FDA concentrations [3, 5]: 2.1 | FI rate ratios of the same trapped cells sequentially exposed to different FDA concentrations [3, 6]: 3.6 | FI rate ratios of the same trapped cells sequentially exposed to different FDA concentrations [3, 7]: 5.6 | average KMAPP [3, 9]: 4.88 µM | average VMAX [3, 9]: 695 intensity/sec

OO [H2O2, hydrogen peroxide]
ratio pre to post treatment slopes (FI rate), control cells relative to treated cells [4]: double

Phytohemagglutinin [PHA]
population average VMAX ([2]; cells incubated with PHA): 6.6 | population average KMAPP ([2]; cells incubated with PHA, FDA 0.3-2.4 μM): 2.16 µM | decrease in KMAPP compared to the control [3, 10]: 69% | decrease in VMAX compared to the control [3, 10]: 6% | average KMAPP ([3]; cells incubated with PHA, FDA substrate 0.6-3.6 μM, CS-S): 1.50 µM | average VMAX ([3]; cells incubated with PHA, FDA substrate, CS-S): 652 intensity/sec
